Laboratory results taken from PubChem BioAssay AID270 (DTP/NCI, 2004).
Results filed as inconclusive are left out. Rule for the calls: active = survival T/C of 150% or more; inactive = T/C below 125% in these data.

Test system: BDF1 mice, s.c. Lewis lung carcinoma, T/C %
Test: NCI In Vivo Anticancer Drug Screen. Data for tumor model Lewis Lung Carcinoma (subcutaneous) in B6D2F1 (BDF1) mice
Conditions: endpoint: median survival time, schedule: Q02DX009 (ip), vehicle: saline, higher = longer survival
Procedure: The antitumor activity of compounds was measured in mice bearing transplantable tumors. Survival or tumor size were measured and the results are expressed as the measurement made in the treated group (T) divided by the measurement made in the vehicle treated control group (C). The tumor model used in this assay is Lewis Lung Carcinoma (subcutaneous) in B6D2F1 (BDF1) mice

Measured: T/C

O=C1OC(C(O)CO)C(O)=C1O (stereo not drawn)
inactive: dose: 1.0 mg/kg/injection 113 % of control | dose: 1000.0 mg/kg/injection 87 % of control | dose: 10000.0 mg/kg/injection 10 % of control
